Measured values reported in ChEMBL document CHEMBL4346678, “Synthesis and anti-cancer evaluation of folic acid-peptide- paclitaxel conjugates for addressing drug resistance” (Eur J Med Chem, 2019).
≈ marks a conversion by molar mass, not a printed value. Calls of active or inactive are those of the source. The calls are words filed in the database; no cut-off is given here. Starred links: 1 amine or outer side, 2 acyl side, 3 side chain; linkers in the order of their positions; H or OH if unused. Residues, ends and D or L forms follow the SMILES beside them. *: point of attachment. X1 = CC(=O)O[C@H]1C(=O)[C@@]2(C)[C@H]([C@H](OC(=O)c3ccccc3)[C@]3(O)C[C@H](OC(=O)[C@H](OC(=O)CCCCCN4C(=O)CC(*)C4=O)[C@@H](NC(=O)c4ccccc4)c4ccccc4)C(C)=C1C3(C)C)[C@]1(OC(C)=O)CO[C@@H]1C[C@@H]2O; Pteroyl = Nc1nc2ncc(CNc3ccc(C(=O)*)cc3)nc2c(=O)[nH]1; γGlu = O=C(O)[C@H](CCC(=O)[*:2])N[*:1]

How the values were obtained:
Erythrocyte = test: Hemolytic activity in Wistar rat erythrocytes incubated for 1 hr; assay type: ADME, cell-based
MCF7/PTX [1] = test: Induction of apoptosis in human MCF7/PTX cells assessed as necrotic cells at 3 uM incubated for 12 hrs by Annexin V-FITC/propidium iodide staining based flow cytometric analysis (reference value: 2.1%); assay type: functional
MCF7/PTX [2] = test: Induction of apoptosis in human MCF7/PTX cells assessed as early apoptotic cells at 3 uM incubated for 12 hrs by Annexin V-FITC/propidium iodide staining based flow cytometric analysis (reference value: 1.1%); assay type: functional
HUVEC = test: Cytotoxicity against HUVEC incubated for 48 hrs by MTT assay; assay type: cell-based; conditions: Homo sapiens
MCF7/PTX [3] = test: Cytotoxicity against human MCF7/PTX cells at 1 to 6 uM incubated for 48 hrs by MTT assay; assay type: functional, cell-based
K562 = test: Cytotoxicity against human K562 cells incubated for 48 hrs by MTT assay; assay type: functional, cell-based; conditions: K562, 48 h
MCF7/PTX [4] = test: Cytotoxicity against human MCF7/PTX cells incubated for 48 hrs by MTT assay; assay type: functional, cell-based
MCF7/PTX [5] = test: Induction of membrane disruption in human MCF7/PTX cells incubated for 12 hrs by LDH release assay; assay type: functional, cell-based
MCF7/PTX [6] = test: Induction of apoptosis in human MCF7/PTX cells assessed as live cells at 3 uM incubated for 12 hrs by Annexin V-FITC/propidium iodide staining based flow cytometric analysis (reference value: 95.9%); assay type: functional
MCF7/PTX [7] = test: Induction of apoptosis in human MCF7/PTX cells assessed as late apoptotic cells at 3 uM incubated for 12 hrs by Annexin V-FITC/propidium iodide staining based flow cytometric analysis (reference value: 0.9%); assay type: functional
A2780 = test: Cytotoxicity against human A2780 cells incubated for 48 hrs by MTT assay; assay type: functional, cell-based; conditions: A2780, 48 h
MCF7 [8] = test: Cytotoxicity against human MCF7 cells incubated for 48 hrs by MTT assay; assay type: functional, cell-based; conditions: MCF7, 48 h
[9] = Drug uptake in human MCF7/PTX cells at 1 to 6 uM incubated for 2 hrs using FITC-labelled compound by flow cytometric analysis; assay type: ADME, cell-based
MCF7/PTX [10] = test: Induction of membrane disruption in human MCF7/PTX cells at 3 uM incubated for 12 hrs by AO/EB double staining based fluorescence microscopic method; assay type: functional, cell-based
SK-OV-3 = test: Cytotoxicity against human SKOV3 cells incubated for 48 hrs by MTT assay; assay type: functional, cell-based; conditions: SK-OV-3, 48 h
MCF7/PTX [11] = test: Induction of apoptosis in human MCF7/PTX cells assessed as early apoptotic cells at 3 uM incubated for 12 hrs by Annexin V-FITC/propidium iodide staining based flow cytometric analysis in presence of paclitaxel (reference value: 1.1%); assay type: functional
MCF7/PTX [12] = test: Induction of apoptosis in human MCF7/PTX cells assessed as live cells at 3 uM incubated for 12 hrs by Annexin V-FITC/propidium iodide staining based flow cytometric analysis in presence of paclitaxel (reference value: 95.9%); assay type: functional
[13] = Half life in Wistar rat plasma at 500 ug/ml measured over 24 hrs at 37 degC by UPLC/MS analysis; assay type: ADME, cell-free
MCF7/PTX [14] = test: Induction of apoptosis in human MCF7/PTX cells assessed as late apoptotic cells at 3 uM incubated for 12 hrs by Annexin V-FITC/propidium iodide staining based flow cytometric analysis in presence of paclitaxel (reference value: 0.9%); assay type: functional
MCF7/PTX [15] = test: Induction of apoptosis in human MCF7/PTX cells assessed as necrotic cells at 3 uM incubated for 12 hrs by Annexin V-FITC/propidium iodide staining based flow cytometric analysis in presence of paclitaxel (reference value: 2.1%); assay type: functional
MCF7/PTX [16] = test: Induction of apoptosis in human MCF7/PTX cells assessed as increase in cleaved caspase 3 level in cytoplasm at 3 uM incubated for 2 hrs by Western blot analysis; assay type: functional, cell-based
MCF7/PTX [17] = test: Induction of mitochondrial membrane potential loss in human MCF7/PTX cells at 3 uM incubated for 12 hrs by JC1 staining-based confocal microscopic method; assay type: functional, cell-based
MCF7/PTX [18] = test: Induction of membrane disruption in human MCF7/PTX cells incubated for 12 hrs by AO/EB double-staining based fluorescence microscopic method; assay type: functional, cell-based
MCF7 [19] = test: Cytotoxicity against human MCF7 cells at 1 to 6 uM incubated for 48 hrs by MTT assay; assay type: functional, cell-based
MCF7/PTX [20] = test: Induction of apoptosis in human MCF7/PTX cells assessed increase in cytochrome-c expression in cytoplasm at 3 uM incubated for 2 hrs by Western blot analysis; assay type: functional, cell-based
Tubulin (Sus scrofa) = Tubulin (Sus scrofa) (UniProt P02554+P02550); test: Induction of porcine brain tubulin polymerization at 3 uM by fluorescence analysis
Sequence of Tubulin (Sus scrofa) (P02550 whole entry, looked up): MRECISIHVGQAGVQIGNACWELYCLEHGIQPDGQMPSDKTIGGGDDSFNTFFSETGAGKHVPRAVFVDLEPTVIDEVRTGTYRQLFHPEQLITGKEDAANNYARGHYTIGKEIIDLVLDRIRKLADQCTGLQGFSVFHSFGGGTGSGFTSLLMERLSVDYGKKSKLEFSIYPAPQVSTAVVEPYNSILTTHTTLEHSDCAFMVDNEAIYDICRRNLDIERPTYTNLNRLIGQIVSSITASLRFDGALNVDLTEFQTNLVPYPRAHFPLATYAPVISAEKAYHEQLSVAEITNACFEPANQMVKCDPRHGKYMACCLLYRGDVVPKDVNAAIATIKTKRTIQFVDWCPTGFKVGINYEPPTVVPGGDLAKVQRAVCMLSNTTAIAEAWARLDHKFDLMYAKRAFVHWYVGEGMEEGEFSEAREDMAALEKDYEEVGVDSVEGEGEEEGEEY
Sequence of Tubulin (Sus scrofa) (P02554 whole entry, looked up): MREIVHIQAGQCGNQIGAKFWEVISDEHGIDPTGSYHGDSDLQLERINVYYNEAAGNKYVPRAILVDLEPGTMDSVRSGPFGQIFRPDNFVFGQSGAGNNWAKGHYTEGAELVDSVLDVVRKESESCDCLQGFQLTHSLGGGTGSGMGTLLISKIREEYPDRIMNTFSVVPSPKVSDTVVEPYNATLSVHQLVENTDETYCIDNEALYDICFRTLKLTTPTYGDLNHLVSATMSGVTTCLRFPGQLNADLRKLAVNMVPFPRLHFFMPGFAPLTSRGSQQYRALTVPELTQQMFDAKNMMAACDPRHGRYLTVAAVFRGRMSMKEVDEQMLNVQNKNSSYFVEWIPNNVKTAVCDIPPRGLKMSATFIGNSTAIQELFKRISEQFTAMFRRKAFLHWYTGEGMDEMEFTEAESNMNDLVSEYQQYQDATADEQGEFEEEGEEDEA

[21] = Aqueous solubility of the compound; assay type: physicochemical; conditions: buffer
[22] = Antitumor activity against […] cells xenografted in ICR mouse assessed as reduction in tumor volume at 12 umol/kg administered once every 2 days via peritumoral route for 2 weeks measured for 22 days by caliper analysis relative to control; assay type: functional

Molecule	Activity (Erythrocyte)	Activity (MCF7/PTX [1])	Activity (MCF7/PTX [2])	IC50 (HUVEC)	Activity (MCF7/PTX [3])	IC50 (K562)	IC50 (MCF7/PTX [4])	Activity (MCF7/PTX [5])	Activity (MCF7/PTX [6])	Activity (MCF7/PTX [7])	IC50 (A2780)	IC50 (MCF7 [8])	Drug uptake [9]	Activity (MCF7/PTX [10])	IC50 (SK-OV-3)	also measured
CC(=O)O[C@H]1C(=O)[C@@]2(C)[C@H]([C@H](OC(=O)c3ccccc3)[C@]3(O)C[C@H](OC(=O)[C@H](OC(=O)CCCCCN4C(=O)CC(SC[C@H](NC(=O)[C@H](CCCCN)NC(=O)[C@H](CCCCN)NC(=O)[C@H](CC(C)C)NC(=O)[C@H](CCCCN)NC(=O)[C@H](CCCNC(=N)N)NC(=O)[C@H](Cc5ccccc5)NC(=O)[C@H](Cc5ccccc5)NC(=O)[C@H](CCCCN)NC(=O)[C@H](CCCCN)NC(=O)[C@H](Cc5ccccc5)NC(=O)[C@H](CCCNC(=N)N)NC(=O)[C@H](CCCCN)NC(=O)[C@@H](NC(=O)[C@@H](N)CC(C)C)C(C)C)C(=O)N[C@H](C(=O)N[C@@H](CC(C)C)C(=O)N[C@@H](CC(C)C)C(N)=O)C(C)C)C4=O)[C@@H](NC(=O)c4ccccc4)c4ccccc4)C(C)=C1C3(C)C)[C@]1(OC(C)=O)CO[C@@H]1C[C@@H]2O (stereo not given in full) (H-LVKRFKKFFRKLKKC(X1)VLL-NH2)	Toxic	3.2%	2.2%	31.6 µM	inactive	5.9 µM	6.11 µM	Dose-dependent effect	74.4%	20.2%	2.69 µM	2.15 µM	Active	Active	7.17 µM	–
H-LVRRFRRFFRRLRRCVLL-NH2	–	5.7%	1.7%	44.5 µM	–	9.49 µM	17.1 µM	–	83.5%	9%	11.5 µM	8.61 µM	–	–	13.6 µM	Activity (MCF7/PTX [11]): 1.7%; Activity (MCF7/PTX [12]): 76.7%; half-life at 500 ug/ml [13]: 48 min; Activity (MCF7/PTX [14]): 15.9%; Activity (MCF7/PTX [15]): 5.8%
CC(=O)O[C@H]1C(=O)[C@@]2(C)[C@H]([C@H](OC(=O)c3ccccc3)[C@]3(O)C[C@H](OC(=O)[C@H](OC(=O)CCCCCN4C(=O)CC(SC[C@H](NC(=O)[C@H](CCCNC(=N)N)NC(=O)[C@H](CCCNC(=N)N)NC(=O)[C@H](CC(C)C)NC(=O)[C@H](CCCNC(=N)N)NC(=O)[C@H](CCCNC(=N)N)NC(=O)[C@H](Cc5ccccc5)NC(=O)[C@H](Cc5ccccc5)NC(=O)[C@H](CCCNC(=N)N)NC(=O)[C@H](CCCNC(=N)N)NC(=O)[C@H](Cc5ccccc5)NC(=O)[C@H](CCCNC(=N)N)NC(=O)[C@H](CCCNC(=N)N)NC(=O)[C@@H](NC(=O)[C@@H](N)CC(C)C)C(C)C)C(=O)N[C@H](C(=O)N[C@@H](CC(C)C)C(=O)N[C@@H](CC(C)C)C(N)=O)C(C)C)C4=O)[C@@H](NC(=O)c4ccccc4)c4ccccc4)C(C)=C1C3(C)C)[C@]1(OC(C)=O)CO[C@@H]1C[C@@H]2O (stereo not given in full) (H-LVRRFRRFFRRLRRC(X1)VLL-NH2)	Toxic	3.6%	1.7%	37.2 µM	–	3.82 µM	5.53 µM	Dose-dependent effect	64.7%	30.2%	2.79 µM	1.98 µM	–	Active	6.61 µM	–
H-LVKRFKKFFRKLKKCVLL-NH2	–	4.6%	1.6%	40.2 µM	–	13.7 µM	15.2 µM	–	91.1%	2.6%	13.6 µM	12.3 µM	–	–	14.7 µM	–
CC(=O)O[C@H]1C(=O)[C@@]2(C)[C@H]([C@H](OC(=O)c3ccccc3)[C@]3(O)C[C@H](OC(=O)[C@H](OC(=O)CCCCCN4C(=O)CC(SC[C@H](NC(=O)[C@H](CCCCN)NC(=O)[C@H](CCCCN)NC(=O)[C@H](CC(C)C)NC(=O)[C@H](CCCCN)NC(=O)[C@H](CCCNC(=N)N)NC(=O)[C@H](Cc5ccccc5)NC(=O)[C@H](Cc5ccccc5)NC(=O)[C@H](CCCCN)NC(=O)[C@H](CCCCN)NC(=O)[C@H](Cc5ccccc5)NC(=O)[C@H](CCCNC(=N)N)NC(=O)[C@H](CCCCN)NC(=O)[C@@H](NC(=O)[C@H](CC(C)C)NC(=O)CC[C@H](NC(=O)c5ccc(NCc6cnc7nc(N)[nH]c(=O)c7n6)cc5)C(=O)O)C(C)C)C(=O)N[C@H](C(=O)N[C@@H](CC(C)C)C(=O)N[C@@H](CC(C)C)C(N)=O)C(C)C)C4=O)[C@@H](NC(=O)c4ccccc4)c4ccccc4)C(C)=C1C3(C)C)[C@]1(OC(C)=O)CO[C@@H]1C[C@@H]2O (stereo not given in full) ({Pteroyl-γGlu}-LVKRFKKFFRKLKKC(X1)VLL-NH2)	Toxic	8%	1.1%	48.6 µM	Active	5.38 µM	4.54 µM	Dose-dependent effect	56.3%	34.6%	1.95 µM	1.79 µM	Active	Active	5.92 µM	Activity (MCF7/PTX [16]): Active; Activity (MCF7/PTX [17]): Active; Activity (MCF7/PTX [18]): Dose-dependent effect; Activity (MCF7 [19]): Active; Activity (MCF7/PTX [20]): Active
CC(=O)O[C@H]1C(=O)[C@@]2(C)[C@H]([C@H](OC(=O)c3ccccc3)[C@]3(O)C[C@H](OC(=O)[C@H](O)[C@@H](NC(=O)c4ccccc4)c4ccccc4)C(C)=C1C3(C)C)[C@]1(OC(C)=O)CO[C@@H]1C[C@@H]2O [PACLITAXEL]	–	3.9%	1.3%	9.39 µM	–	5.8 µM	54.8 µM	–	93.2%	1.5%	2.85 µM	–	–	–	6.29 µM	Activity (Tubulin (Sus scrofa)): Active; solubility [21]: 4 µg/mL (≈ 4.68 µM); inhibition in vivo at 12 µmol/kg [22]: 49%
